# Article PMC6429214, “Design, Synthesis and Biological Evaluation of Isoxazole-Based CK1 Inhibitors Modified with Chiral Pyrrolidine Scaffolds” (Molecules, 2019)
# Key:
# Format in all cases: biochemical
# FGF-R1 = target: T1, FGF-R1 (Homo sapiens, UniProt P11362); assay: 33PanQinase panel; conditions: FGF-R1, 1 µM; read-out: Residual Activity (%)
# T1 construct: purchased ProQinase
# How it was run: (§1)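 Residual activity (%) relative to DMSO control was measured by radiometric 33P-based kinase activity assay with inhibitor at 1 µM and 1% final DMSO, across 320 wild-type kinases.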
# IGF1-R = target: T2, IGF1-R (Homo sapiens, UniProt P08069); assay: 33PanQinase panel; conditions: read-out: Residual Activity (%)
# T2 construct: purchased ProQinase
# How it was run: as §1
# CDK6/CycD3 = target: T3, CDK6/CycD3 (Homo sapiens, UniProt Q00534); assay: 33PanQinase panel; conditions: CDK6/CycD3, 1 µM; read-out: Residual Activity (%)
# T3 construct: purchased ProQinase
# How it was run: as §1
# TGFB-R1 = target: T4, TGFB-R1 (Homo sapiens, UniProt P36897); assay: 33PanQinase panel; conditions: TGFB-R1, 1 µM; read-out: Residual Activity (%)
# T4 construct: purchased ProQinase
# How it was run: as §1
# HIPK4 = target: T5, HIPK4 (Homo sapiens, UniProt Q8NE63); assay: 33PanQinase panel; conditions: HIPK4, 1 µM; read-out: Residual Activity (%)
# T5 construct: purchased ProQinase
# How it was run: as §1
# MET = target: T6, MET (Homo sapiens, UniProt P08581); assay: 33PanQinase panel; conditions: read-out: Residual Activity (%)
# T6 construct: purchased ProQinase
# T6 sequence (P08581 25-1390): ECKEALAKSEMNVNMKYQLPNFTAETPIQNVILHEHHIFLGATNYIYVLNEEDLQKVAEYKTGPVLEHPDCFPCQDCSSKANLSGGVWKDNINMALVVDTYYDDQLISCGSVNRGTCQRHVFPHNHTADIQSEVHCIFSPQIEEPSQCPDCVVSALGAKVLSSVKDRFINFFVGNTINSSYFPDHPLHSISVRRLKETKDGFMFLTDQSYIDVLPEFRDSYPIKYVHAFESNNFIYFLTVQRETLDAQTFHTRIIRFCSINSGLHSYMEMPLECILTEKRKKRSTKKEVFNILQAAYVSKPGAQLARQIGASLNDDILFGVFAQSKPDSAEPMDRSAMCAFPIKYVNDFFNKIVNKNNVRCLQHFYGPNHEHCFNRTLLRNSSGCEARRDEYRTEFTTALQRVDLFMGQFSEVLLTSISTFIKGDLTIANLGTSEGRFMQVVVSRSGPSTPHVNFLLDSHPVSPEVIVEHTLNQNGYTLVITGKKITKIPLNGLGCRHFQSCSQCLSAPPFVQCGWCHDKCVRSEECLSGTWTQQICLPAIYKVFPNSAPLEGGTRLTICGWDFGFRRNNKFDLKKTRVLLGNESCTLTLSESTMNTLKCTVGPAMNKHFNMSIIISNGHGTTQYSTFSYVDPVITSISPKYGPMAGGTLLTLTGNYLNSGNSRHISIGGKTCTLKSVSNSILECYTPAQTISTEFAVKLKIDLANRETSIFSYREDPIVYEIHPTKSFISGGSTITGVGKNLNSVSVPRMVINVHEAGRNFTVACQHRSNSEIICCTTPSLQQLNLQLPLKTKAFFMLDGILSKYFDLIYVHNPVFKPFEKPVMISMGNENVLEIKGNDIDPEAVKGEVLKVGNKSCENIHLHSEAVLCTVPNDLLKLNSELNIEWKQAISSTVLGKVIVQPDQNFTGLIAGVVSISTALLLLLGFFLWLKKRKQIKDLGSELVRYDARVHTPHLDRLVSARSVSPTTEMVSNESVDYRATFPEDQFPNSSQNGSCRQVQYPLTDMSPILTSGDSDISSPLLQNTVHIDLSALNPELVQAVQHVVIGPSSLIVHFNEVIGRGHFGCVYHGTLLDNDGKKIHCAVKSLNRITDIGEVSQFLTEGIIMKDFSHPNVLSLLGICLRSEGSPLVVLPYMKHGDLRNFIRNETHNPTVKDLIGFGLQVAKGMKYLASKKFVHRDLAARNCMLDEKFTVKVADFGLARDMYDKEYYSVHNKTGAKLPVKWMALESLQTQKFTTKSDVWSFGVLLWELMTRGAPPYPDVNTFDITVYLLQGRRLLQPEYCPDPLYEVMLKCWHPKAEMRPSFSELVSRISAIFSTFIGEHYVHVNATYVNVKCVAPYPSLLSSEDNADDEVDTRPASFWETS
# How it was run: as §1
# WEE1 = target: T7, WEE1 (Homo sapiens, UniProt P30291); assay: 33PanQinase panel; conditions: WEE1, 1 µM; read-out: Residual Activity (%)
# T7 construct: purchased ProQinase
# T7 sequence (P30291 whole entry): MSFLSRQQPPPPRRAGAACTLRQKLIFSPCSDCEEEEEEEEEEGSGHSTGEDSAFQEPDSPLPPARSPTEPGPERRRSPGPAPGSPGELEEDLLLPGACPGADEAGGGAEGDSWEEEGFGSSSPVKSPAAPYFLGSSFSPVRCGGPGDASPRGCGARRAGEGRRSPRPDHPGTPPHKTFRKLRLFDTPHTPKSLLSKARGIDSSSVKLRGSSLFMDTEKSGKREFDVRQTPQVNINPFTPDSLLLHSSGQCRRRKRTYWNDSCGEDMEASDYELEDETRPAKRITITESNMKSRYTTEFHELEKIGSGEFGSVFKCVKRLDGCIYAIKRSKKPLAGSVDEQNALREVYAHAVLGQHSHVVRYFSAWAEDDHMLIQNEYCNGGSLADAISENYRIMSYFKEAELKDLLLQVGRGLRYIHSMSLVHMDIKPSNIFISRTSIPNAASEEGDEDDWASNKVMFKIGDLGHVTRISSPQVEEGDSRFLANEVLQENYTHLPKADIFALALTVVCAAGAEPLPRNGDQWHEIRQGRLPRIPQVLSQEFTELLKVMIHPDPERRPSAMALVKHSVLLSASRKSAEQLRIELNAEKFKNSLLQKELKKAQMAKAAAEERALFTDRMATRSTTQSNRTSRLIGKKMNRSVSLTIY
# How it was run: as §1
# Aurora-C = target: T8, Aurora-C (Homo sapiens, UniProt Q9UQB9); assay: 33PanQinase panel; conditions: read-out: Residual Activity (%)
# T8 construct: purchased ProQinase
# T8 sequence (Q9UQB9 whole entry): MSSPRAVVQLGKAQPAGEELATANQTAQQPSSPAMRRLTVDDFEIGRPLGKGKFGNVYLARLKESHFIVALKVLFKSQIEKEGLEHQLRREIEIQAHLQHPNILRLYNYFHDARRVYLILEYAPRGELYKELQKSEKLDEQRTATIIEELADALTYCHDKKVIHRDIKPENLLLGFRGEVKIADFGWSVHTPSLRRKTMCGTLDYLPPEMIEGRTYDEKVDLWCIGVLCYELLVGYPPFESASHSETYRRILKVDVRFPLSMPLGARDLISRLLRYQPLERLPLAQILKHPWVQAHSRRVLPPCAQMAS
# How it was run: as §1
# CDC7/DBF4 = target: T9, CDC7/DBF4 (Homo sapiens, UniProt O00311); assay: 33PanQinase panel; conditions: CDC7/DBF4, 1 µM; read-out: Residual Activity (%)
# T9 construct: purchased ProQinase
# T9 sequence (O00311 whole entry): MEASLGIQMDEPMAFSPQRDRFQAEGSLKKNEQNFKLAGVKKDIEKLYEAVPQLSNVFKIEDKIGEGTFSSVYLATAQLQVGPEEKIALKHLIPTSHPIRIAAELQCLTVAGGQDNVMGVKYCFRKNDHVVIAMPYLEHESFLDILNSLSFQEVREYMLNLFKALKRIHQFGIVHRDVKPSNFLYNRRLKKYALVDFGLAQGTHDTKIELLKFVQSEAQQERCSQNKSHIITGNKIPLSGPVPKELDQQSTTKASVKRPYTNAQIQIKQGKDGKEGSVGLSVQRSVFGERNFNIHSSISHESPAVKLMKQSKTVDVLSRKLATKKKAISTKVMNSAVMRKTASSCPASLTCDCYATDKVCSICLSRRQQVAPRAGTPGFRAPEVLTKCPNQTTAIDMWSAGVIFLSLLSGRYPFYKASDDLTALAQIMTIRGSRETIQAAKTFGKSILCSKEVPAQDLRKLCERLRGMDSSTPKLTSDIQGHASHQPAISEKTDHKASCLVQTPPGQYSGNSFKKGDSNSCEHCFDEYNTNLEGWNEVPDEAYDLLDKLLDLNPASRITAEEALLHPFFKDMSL
# T9 sequence (Q9UBU7 whole entry partner): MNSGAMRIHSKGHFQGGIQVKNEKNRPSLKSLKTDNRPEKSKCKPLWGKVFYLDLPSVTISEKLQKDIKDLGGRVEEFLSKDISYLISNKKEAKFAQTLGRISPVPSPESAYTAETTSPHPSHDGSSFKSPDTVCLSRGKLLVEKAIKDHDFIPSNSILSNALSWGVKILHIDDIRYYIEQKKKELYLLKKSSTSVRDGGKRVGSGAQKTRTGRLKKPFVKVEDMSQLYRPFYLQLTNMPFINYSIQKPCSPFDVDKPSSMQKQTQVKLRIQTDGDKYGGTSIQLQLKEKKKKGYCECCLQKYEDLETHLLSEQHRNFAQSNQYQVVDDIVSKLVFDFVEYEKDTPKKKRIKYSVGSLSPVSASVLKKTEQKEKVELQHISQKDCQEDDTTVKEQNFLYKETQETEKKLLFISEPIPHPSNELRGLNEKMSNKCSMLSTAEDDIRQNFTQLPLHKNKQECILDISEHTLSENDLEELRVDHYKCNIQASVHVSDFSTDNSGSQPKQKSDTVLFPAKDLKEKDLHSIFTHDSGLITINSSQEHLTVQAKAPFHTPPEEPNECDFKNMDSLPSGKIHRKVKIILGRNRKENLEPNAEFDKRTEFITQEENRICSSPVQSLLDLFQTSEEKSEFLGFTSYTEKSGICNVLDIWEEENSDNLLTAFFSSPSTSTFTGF
# How it was run: as §1
# BRSK2 = target: T10, BRSK2 (Homo sapiens, UniProt Q8IWQ3); assay: 33PanQinase panel; conditions: BRSK2, 1 µM; read-out: Residual Activity (%)
# T10 construct: purchased ProQinase
# How it was run: as §1
# DMPK = target: T11, DMPK (Homo sapiens, UniProt Q09013); assay: 33PanQinase panel; conditions: read-out: Residual Activity (%)
# T11 construct: purchased ProQinase
# T11 sequence (Q09013 whole entry): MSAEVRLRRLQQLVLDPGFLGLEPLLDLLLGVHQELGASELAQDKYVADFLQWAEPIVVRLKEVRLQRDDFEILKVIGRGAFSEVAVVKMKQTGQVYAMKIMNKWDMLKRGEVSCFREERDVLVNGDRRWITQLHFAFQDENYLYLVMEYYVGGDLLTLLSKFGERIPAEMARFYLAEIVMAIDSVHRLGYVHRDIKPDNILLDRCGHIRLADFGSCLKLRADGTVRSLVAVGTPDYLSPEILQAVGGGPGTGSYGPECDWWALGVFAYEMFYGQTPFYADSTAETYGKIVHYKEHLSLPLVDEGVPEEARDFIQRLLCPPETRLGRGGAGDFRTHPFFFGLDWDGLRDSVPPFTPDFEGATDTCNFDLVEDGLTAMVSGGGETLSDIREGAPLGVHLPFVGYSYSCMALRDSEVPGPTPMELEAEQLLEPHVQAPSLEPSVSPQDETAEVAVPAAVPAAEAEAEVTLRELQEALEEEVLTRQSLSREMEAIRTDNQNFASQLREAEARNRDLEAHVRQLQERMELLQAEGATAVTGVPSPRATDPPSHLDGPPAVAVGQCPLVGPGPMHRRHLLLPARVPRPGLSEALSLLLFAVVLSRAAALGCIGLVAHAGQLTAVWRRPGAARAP
# Method: (§2) Figure 5 Dendrogram representation of the selectivity profile of 29d at a concentration of 1 μM in a panel of 320 wild-type kinases (ProQinase, Freiburg, Germany). The residual kinase activity was determined compared to DMSO control. Images were generated using TREEspot Software Tool, DISCOVERX CORPORATION 2010.
# (§3) Figure S1. X-ray crystal structure of intermediate compound 25d (ORTEP drawing with ellipsoids at 30% probability). CCDC 1589043 contains the supplementary crystallographic data for this paper. The data can be obtained free of charge from The Cambridge Crystallographic Data Centre via www.ccdc.cam.ac.uk/structures.
# (§4) Table S1 Data collection, structure refinement and Ramachrandran plot results of protein crystallization of CK1δ in complex with compound 30a and 30b, respectively.
# (§5) Root-mean-square deviations
# (§6) Additionally allowed 2.6 2.2
# (§7) Table S2. Selectivity profile of compound 29d. The inhibitor has been screened at a concentration of 1 µM over a panel of 320 wild-type protein kinases by ProQinase GmbH (Freiburg, Germany) using an activity-based radiometric 33PanQinase® assay. Results are presented as percentage of residual kinase activity relative to […]
# (§8) control. The final DMSO concentration was 1 % in each reaction-mix. Classification of protein kinase families refers to Manning et al. (Manning, G.; Whyte, D. B.; Martinez, R.; Hunter, T.; Sudarsanam, S. The Protein Kinase Complement of the Human Genome. Science 2002, 298, 1912–1934): AGC = containing PKA, PKG, PKC families; […] = containing Cdk, MAPK, GSK3, CLK families; STE = homologs of yeast sterile 7, sterile 11, sterile 20 kinases; TK = tyrosine kinase; TKL = tyrosine kinase-like.
# (§9) Kinase name Kinase family Residual Activity (%)
# EPHA8 = target: T12, EPHA8 (Homo sapiens, UniProt P29322); assay: 33PanQinase panel; conditions: EPHA8, 1 µM; read-out: Residual Activity (%)
# T12 construct: purchased ProQinase
# Method: as §2, §3, §4, §5, §6, §7, §8, §9
# MKK7 = target: T13, MKK7 (Homo sapiens, UniProt O14733); assay: 33PanQinase panel; conditions: MKK7, 1 µM; read-out: Residual Activity (%)
# T13 construct: purchased ProQinase
# Method: as §2, §3, §4, §5, §6, §7, §8, §9
# CDK2/CycA2 = target: T14, CDK2/CycA2 (Homo sapiens, UniProt P24941); assay: 33PanQinase panel; conditions: CDK2/CycA2, 1 µM; read-out: Residual Activity (%)
# T14 construct: purchased ProQinase
# Method: as §2, §3, §4, §5, §6, §7, §8, §9
# [1] = target: T15, human CK1δ transcription variant 1 (Homo sapiens, UniProt P48730); assay: in-vitro kinase assay CK1δ; conditions: 10 µM ATP, mean ± SD, n = 3
# T15 construct: made in house; own knowledge
# From the text: Human CK1δ transcription variant 1 (CK1δ TV1_NM_001893.4) has been amplified from the cDNA obtained from HT1080 cell line, using CK1δ_forward-primer: 5′-GGATCCATGGAGCTGAGAGTCGGGAACAG-3′ and CK1δ_reverse primer: 5′-GGATCCTCATCGGTGCACGACAGACTGA-3′. The CK1δ DNA construct was cloned into pSC-A cloning vector (Agilent technologies, Munich, Germany) with BamHI enzyme, to generate plasmids pGEX6-P3-GST-CK1δ TV1 (FP1417). Overexpression and purification of GST-CK1δ TV1 protein has been performed as described before.
# In vitro kinase assays have been performed to both screen, as well as to calculate IC50 values of the compounds for CK1δ and ε. Each reaction was carried out using 2 μCi ^32P-γ-ATP in kinase buffer containing 25 mM Tris-HCl (pH = 7.5), 10 mM MgCl2, 100 µM EDTA, and 10 µM ATP. […] Recombinant human CK1δ transcription variant 1 (expressed and purified as GST fusion protein as described earlier) and human GST-CK1ε (PV3500; Invitrogen) were used as sources of enzyme, while α-casein (C6780; Sigma-Aldrich) was used as substrate. Kinase reactions were incubated for 30 min at 30 °C and then stopped with loading dye (50 mM Tris-HCl (pH = 6.8), 5% (v/v) β-mercaptoethanol (MSH), 10% (v/v) glycerol, 2% (w/v) sodium dodecyl sulfate (SDS), 0.1% (w/v) bromphenol blue). Subsequently, reactions were separated by sodium dodecyl sulfate polyacrylamide gel electrophoresis (SDS-PAGE) and phosphorylated protein bands were visualized on dried gels by autoradiography. The phosphorylated substrate protein bands were excised, and phosphorylation was quantified by Cherenkov counting. Dose-response analyses and calculation of IC50 values were carried out using GraphPad Prism 6 statistical software (San Diego, CA, USA).
# T1 sequence (P11362 22-822): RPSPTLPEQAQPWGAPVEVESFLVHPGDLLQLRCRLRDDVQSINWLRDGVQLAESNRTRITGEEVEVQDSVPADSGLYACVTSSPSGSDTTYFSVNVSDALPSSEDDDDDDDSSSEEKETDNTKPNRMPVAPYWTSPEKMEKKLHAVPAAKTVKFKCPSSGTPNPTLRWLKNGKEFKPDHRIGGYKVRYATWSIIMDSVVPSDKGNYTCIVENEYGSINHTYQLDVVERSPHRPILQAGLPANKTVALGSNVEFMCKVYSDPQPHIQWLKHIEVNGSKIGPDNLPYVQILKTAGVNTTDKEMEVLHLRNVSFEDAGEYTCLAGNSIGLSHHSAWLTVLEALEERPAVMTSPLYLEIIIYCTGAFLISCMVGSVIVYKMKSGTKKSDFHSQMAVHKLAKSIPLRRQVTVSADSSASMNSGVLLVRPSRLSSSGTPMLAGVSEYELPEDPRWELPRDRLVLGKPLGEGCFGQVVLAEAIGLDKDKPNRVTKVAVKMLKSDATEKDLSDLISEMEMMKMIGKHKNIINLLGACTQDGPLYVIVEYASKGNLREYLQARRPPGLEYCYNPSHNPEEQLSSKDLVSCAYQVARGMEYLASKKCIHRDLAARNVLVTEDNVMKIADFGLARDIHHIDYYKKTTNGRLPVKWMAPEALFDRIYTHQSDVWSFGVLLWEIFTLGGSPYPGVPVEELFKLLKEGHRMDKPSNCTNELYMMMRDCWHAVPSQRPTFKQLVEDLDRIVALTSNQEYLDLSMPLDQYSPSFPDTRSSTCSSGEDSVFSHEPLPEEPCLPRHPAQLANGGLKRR
smiles,measurement,setting,value
COc1ccc(-c2cc(C(=O)Nc3cc(-c4c(-c5ccc(F)cc5)noc4C(C)C)ccn3)n(CC3NCC(O)C3O)c2)cc1 (stereo not shown) [29d],remaining activity at 1 µM,FGF-R1,138%
same,remaining activity at 1 µM,IGF1-R,104%
same,remaining activity at 1 µM,CDK6/CycD3,98%
same,remaining activity at 1 µM,TGFB-R1,102%
same,remaining activity at 1 µM,HIPK4,91%
same,remaining activity at 1 µM,MET,89%
same,remaining activity at 1 µM,WEE1,95%
same,remaining activity at 1 µM,Aurora-C,97%
same,remaining activity at 1 µM,CDC7/DBF4,94%
same,remaining activity at 1 µM,BRSK2,90%
same,remaining activity at 1 µM,DMPK,93%
same,remaining activity at 1 µM,EPHA8,113%
same,remaining activity at 1 µM,MKK7,95%
same,remaining activity at 1 µM,CDK2/CycA2,102%
same,IC50,[1],0.038 ± 0.003 µM
same,remaining activity at 10 µM,"[1]; 10 µM compound, read-out: CK1δ Residual Activity [%] at 10 µM ± SD",2.9 ± 0.3%
